ChEMBL document CHEMBL1121517, “Estrogen receptor based imaging agents. 1. Synthesis and receptor binding affinity of some aromatic and D-ring halogenated estrogens” (J Med Chem, 1980)

biological target: Estrogen receptor (Ovis aries) (UniProt P49885+Q9TU15)

Structure (SMILES)	RAC
CCC(c1ccc(O)cc1)C(CC)c1ccc(O)c(F)c1 (stereo not drawn)	205
C[C@]12CC[C@@H]3c4ccc(O)cc4CC[C@H]3[C@@H]1C[C@H](Br)[C@@H]2O	4.7
C[C@]12CC[C@@H]3c4ccc(O)cc4CC[C@H]3[C@@H]1C[C@@H](Cl)[C@H]2O	9.2
C[C@]12CC[C@@H]3c4cc(I)c(O)cc4CC[C@H]3[C@@H]1CC[C@@H]2O	< 0.1
C[C@]12CC[C@@H]3c4ccc(O)cc4CC[C@H]3[C@@H]1C[C@@H](Br)[C@H]2O	4.8
CCC(c1ccc(O)cc1)C(CC)c1ccc(O)c(Br)c1 (stereo not drawn)	16
COc1ccc2c(c1)CC[C@@H]1[C@@H]2CC[C@]2(C)C(=O)CC[C@@H]12	12
CCC(c1ccc(O)c(I)c1)C(CC)c1ccc(O)c(I)c1 (stereo not drawn)	3.2
CCC(c1ccc(O)c(I)c1)C(CC)c1cc(I)c(O)c(I)c1 (stereo not drawn)	0.14
CCC(c1cc(I)c(O)c(I)c1)C(CC)c1cc(I)c(O)c(I)c1 (stereo not drawn)	0.002
CCC(c1ccc(O)c(F)c1)C(CC)c1ccc(O)c(F)c1 (stereo not drawn)	64
C[C@]12CC[C@@H]3c4cc(F)c(O)cc4CC[C@H]3[C@@H]1CC[C@@H]2O	86
C[C@]12CC[C@@H]3c4ccc(O)cc4CC[C@H]3[C@@H]1C[C@H](I)[C@@H]2O	57
CCC(c1ccc(O)c(Br)c1)C(CC)c1cc(Br)c(O)c(Br)c1 (stereo not drawn)	0.72
CCC(c1cc(Br)c(O)c(Br)c1)C(CC)c1cc(Br)c(O)c(Br)c1 (stereo not drawn)	< 0.17
C[C@]12CC[C@@H]3c4ccc(O)c(F)c4CC[C@H]3[C@@H]1CC[C@@H]2O	128
C[C@]12CC[C@@H]3c4cc(Br)c(O)cc4CC[C@H]3[C@@H]1CC[C@@H]2O	1.2
C[C@]12CC[C@@H]3c4ccc(O)cc4CC[C@H]3[C@@H]1C[C@@H](Br)[C@@H]2O	127
COc1ccc2c(c1)CC[C@@H]1[C@@H]2CC[C@]2(C)C(=O)[C@@H](Br)C[C@@H]12	0.14
CC[C@H](c1ccc(O)cc1)[C@@H](CC)c1ccc(O)cc1	300
C[C@]12CC[C@@H]3c4ccc(O)c(Br)c4CC[C@H]3[C@@H]1CC[C@@H]2O	10
COc1ccc2c(c1)CC[C@@H]1[C@@H]2CC[C@]2(C)C(=O)[C@H](Cl)C[C@@H]12	0.48
CCC(c1ccc(O)c(Br)c1)C(CC)c1ccc(O)c(Br)c1 (stereo not drawn)	2.6
COc1ccc2c(c1)CC[C@@H]1[C@@H]2CC[C@]2(C)C(=O)[C@H](Br)C[C@@H]12	3.5
CCC(c1ccc(O)cc1)C(CC)c1cc(I)c(O)c(I)c1 (stereo not drawn)	1.9
CCC(c1ccc(O)cc1)C(CC)c1ccc(O)c(I)c1 (stereo not drawn)	14
C[C@]12CC[C@@H]3c4ccc(O)cc4CC[C@H]3[C@@H]1C[C@@H](Cl)[C@@H]2O	100
C[C@]12CC[C@@H]3c4ccc(O)cc4CC[C@H]3[C@@H]1C[C@@H](I)[C@@H]2O	100
